For one assay, the target named is T1, mNaV1.9 (mouse NaV1.9) (Mus musculus, UniProt Q9R053).
T1 construct: Representative current traces of mNaV1.9, recorded from the NaV1.8-null mouse small DRG neurons; endogenous in cells; host or cells: small DRG neurons of NaV1.8-null mice
The assay can be described thus: cell-based. Particulars: NaV1.8-null mouse small DRG neurons, 300 nM TTX; 100-ms step to –40 mV from holding potential –110 mV; variable slope fit; room temperature; mean ± SEM; read-out: IC50 for inhibition of mNaV1.9 currents.

A further assay concerns the target rNaV1.8 (rat NaV1.8) (Rattus norvegicus, UniProt Q62968). The assay can be described thus: cell-based.

One may read the IC50 as the midpoint of a concentration-inhibition curve.

Structures are written as SMILES. Positions of bridges follow the written chain, without caps; N, C: chain ends. Residues, ends and D or L forms follow the SMILES beside them.

rNaV1.8 (rat NaV1.8), sequence (Q62968 whole entry): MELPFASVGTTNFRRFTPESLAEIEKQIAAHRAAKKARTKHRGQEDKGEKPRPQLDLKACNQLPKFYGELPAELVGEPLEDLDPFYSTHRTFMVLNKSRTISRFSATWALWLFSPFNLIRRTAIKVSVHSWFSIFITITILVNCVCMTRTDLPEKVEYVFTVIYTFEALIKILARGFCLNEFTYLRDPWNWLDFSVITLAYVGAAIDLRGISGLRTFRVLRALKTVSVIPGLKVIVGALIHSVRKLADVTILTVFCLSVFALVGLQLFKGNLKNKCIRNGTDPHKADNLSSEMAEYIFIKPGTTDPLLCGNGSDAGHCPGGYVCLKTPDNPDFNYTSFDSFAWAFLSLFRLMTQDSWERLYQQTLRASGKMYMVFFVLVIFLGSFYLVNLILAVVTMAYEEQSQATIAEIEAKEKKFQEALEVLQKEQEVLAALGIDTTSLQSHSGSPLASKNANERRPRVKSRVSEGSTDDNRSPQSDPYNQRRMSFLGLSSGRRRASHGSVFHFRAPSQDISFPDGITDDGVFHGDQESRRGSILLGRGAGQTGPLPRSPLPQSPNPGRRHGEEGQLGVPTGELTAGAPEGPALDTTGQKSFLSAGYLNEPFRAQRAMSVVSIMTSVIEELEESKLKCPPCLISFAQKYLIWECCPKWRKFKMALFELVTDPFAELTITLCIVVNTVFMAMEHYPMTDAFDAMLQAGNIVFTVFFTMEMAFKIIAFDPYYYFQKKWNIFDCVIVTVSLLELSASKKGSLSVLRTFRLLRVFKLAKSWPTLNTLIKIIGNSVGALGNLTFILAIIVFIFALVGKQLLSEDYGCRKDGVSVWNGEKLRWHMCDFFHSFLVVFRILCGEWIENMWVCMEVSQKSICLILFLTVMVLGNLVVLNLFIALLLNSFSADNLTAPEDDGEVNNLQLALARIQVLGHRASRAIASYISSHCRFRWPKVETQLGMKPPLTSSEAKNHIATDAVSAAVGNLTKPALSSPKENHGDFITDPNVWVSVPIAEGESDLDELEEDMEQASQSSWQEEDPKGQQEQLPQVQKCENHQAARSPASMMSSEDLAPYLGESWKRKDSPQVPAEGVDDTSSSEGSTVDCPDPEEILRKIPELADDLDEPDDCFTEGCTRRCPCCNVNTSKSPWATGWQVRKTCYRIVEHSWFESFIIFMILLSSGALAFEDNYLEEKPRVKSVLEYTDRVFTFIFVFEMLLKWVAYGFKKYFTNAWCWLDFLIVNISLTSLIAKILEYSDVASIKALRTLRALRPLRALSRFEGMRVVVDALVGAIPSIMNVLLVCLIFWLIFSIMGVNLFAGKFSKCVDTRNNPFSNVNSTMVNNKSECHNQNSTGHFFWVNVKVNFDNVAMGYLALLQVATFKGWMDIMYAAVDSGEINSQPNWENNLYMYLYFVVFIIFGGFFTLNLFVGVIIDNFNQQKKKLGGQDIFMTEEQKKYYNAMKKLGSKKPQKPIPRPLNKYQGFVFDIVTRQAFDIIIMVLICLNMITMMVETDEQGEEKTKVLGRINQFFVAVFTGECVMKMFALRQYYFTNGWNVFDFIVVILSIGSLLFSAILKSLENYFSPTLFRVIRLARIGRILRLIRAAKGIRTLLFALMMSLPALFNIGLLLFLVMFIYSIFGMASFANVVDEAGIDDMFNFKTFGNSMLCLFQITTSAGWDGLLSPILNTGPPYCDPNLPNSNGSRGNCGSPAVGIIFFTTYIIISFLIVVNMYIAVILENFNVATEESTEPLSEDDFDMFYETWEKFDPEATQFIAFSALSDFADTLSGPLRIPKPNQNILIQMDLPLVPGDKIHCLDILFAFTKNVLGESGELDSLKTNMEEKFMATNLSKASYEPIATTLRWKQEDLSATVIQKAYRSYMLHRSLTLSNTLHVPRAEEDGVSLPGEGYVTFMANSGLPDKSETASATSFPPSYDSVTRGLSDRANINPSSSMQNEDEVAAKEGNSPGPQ
T1 sequence (Q9R053 whole entry): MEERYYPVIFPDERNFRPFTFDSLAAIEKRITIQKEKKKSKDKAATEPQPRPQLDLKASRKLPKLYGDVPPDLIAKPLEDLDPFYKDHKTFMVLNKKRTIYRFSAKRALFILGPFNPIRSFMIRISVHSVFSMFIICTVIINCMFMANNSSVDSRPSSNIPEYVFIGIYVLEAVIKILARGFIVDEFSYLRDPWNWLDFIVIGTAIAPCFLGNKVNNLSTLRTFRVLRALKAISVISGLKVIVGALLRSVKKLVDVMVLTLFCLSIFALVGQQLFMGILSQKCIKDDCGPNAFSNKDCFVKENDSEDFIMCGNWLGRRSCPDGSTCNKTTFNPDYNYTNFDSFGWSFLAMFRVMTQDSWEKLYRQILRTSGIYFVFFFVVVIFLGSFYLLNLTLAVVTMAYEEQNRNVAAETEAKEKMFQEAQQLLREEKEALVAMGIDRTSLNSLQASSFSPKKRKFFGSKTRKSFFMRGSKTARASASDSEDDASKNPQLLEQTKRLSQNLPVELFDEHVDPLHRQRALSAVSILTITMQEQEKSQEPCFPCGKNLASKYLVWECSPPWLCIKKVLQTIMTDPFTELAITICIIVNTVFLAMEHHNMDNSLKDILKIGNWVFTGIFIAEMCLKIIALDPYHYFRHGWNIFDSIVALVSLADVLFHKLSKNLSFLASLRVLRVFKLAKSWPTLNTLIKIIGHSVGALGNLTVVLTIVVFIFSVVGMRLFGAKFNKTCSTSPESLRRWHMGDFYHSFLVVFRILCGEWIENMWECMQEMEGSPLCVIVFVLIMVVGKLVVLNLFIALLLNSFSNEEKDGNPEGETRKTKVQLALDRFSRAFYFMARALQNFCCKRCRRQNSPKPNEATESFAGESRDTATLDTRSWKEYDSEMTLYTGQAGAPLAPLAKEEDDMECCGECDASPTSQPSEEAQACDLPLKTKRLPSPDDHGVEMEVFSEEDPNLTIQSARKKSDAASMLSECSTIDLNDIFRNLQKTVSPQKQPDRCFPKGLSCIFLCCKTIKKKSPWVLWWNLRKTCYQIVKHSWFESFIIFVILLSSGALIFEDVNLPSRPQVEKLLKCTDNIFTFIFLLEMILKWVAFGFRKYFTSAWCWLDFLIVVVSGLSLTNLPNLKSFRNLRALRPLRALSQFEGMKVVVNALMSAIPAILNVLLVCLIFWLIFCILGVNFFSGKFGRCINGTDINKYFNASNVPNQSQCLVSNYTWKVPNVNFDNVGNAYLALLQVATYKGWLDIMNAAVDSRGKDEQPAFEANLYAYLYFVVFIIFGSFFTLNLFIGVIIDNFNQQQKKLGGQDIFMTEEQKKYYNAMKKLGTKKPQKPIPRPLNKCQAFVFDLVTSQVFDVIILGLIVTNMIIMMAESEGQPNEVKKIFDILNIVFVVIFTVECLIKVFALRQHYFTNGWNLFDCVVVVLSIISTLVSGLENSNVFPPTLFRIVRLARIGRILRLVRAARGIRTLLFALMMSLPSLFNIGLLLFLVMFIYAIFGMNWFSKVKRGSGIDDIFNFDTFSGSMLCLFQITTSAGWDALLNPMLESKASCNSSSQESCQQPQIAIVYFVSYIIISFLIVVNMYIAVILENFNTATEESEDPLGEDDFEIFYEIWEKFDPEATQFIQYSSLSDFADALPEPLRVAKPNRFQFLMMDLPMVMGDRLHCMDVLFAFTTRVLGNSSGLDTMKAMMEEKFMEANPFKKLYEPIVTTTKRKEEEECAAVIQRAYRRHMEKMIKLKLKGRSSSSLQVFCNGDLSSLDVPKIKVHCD

As for `CC[C@H](C)[C@H](NC(=O)[C@H](CCSC)NC(=O)[C@@H]1CCCN1C(=O)[C@@H](NC(=O)[C@@H]1CSSC[C@@H]2NC(=O)[C@H](CCC(=O)O)NC(=O)[C@H](Cc3c[nH]c4ccccc34)NC(=O)[C@H](Cc3ccc(O)cc3)NC(=O)[C@H](CCC(=O)O)NC(=O)[C@H](CCCCN)NC(=O)[C@@H](NC(=O)[C@H](C)N)CSSC[C@H](NC(=O)[C@H](Cc3ccccc3)NC(=O)[C@H](CC(C)C)NC(=O)[C@H](Cc3ccccc3)NC(=O)[C@H](C)NC(=O)CNC2=O)C(=O)N[C@@H]([C@@H](C)CC)C(=O)N[C@@H](CCC(=O)O)C(=O)NCC(=O)N[C@@H]([C@@H](C)CC)C(=O)N1)C(C)C)C(N)=O` [HSTX-I] (H-ACKEYWECGAFLFCIEGICVPMI-NH2; disulfide 2-14, 8-19), the values for the 50% inhibitory concentration (IC50) on mNaV1.9 (mouse NaV1.9) and against rNaV1.8 (rat NaV1.8) were around 3.3 µM and around 2.44 µM, respectively.
